Measured values taken from US9365575B2, “Kinase inhibitors” (Allergan, Inc., priority 2012, dated 2016).

Molecular target: VEGFR2 (Homo sapiens (Human), UniProt P35968)
Assay: VEGFR2 Kinase Assay (biochemical KDR kinase assay, poly-Glu-Tyr ELISA)
Conditions: for IC50: purified cytoplasmic domain KDR protein, 2.7 μM ATP, 15 minute incubation at 30° C., read-out: VEGFR2 Enzyme IC50; for VEGFR2 potency as shown in this assay (in words): statement in words on the Table 2 data
Protocol: Biochemical KDR kinase assays were performed in 96 well microtiter plates that were coated overnight with 75 μg/well of poly-Glu-Tyr (4:1) in 10 mM Phosphate Buffered Saline (PBS), pH 7.4. The coated plates were washed with 2 mLs per well PBS+0.05% Tween-20 (PBS-T), blocked by incubation with PBS containing 1% BSA, then washed with 2 mLs per well PBS-T prior to starting the reaction. Reactions were carried out in 100 μL reaction volumes containing 2.7 μM ATP in kinase buffer (50 mM Hepes buffer pH 7.4, 20 mM MgCl2, 0.1 mM MnCl2 and 0.2 mM Na3VO4). […] Reactions were initiated by the addition 20 ul per well of kinase buffer containing 200-300 ng purified cytoplasmic domain KDR protein (BPS Bioscience, San Diego, Calif.). Following a 15 minute incubation at 30° C., the reactions were washed 2 mLs per well PBS-T. 100 μl of a monoclonal anti-phosphotyrosine antibody-peroxidase conjugate diluted 1:10,000 in PBS-T was added to the wells for 30 minutes. Following a 2 mLs per well wash with PBS-Tween-20, 100 μl of O-Phenylenediamine Dihydrochloride in phosphate-citrate buffer, containing urea hydrogen peroxide, was added to the wells for 7-10 minutes as a colorimetric substrate for the peroxidase. The reaction was terminated by the addition of 100 μl of 2.5N H2SO4 to each well and read using a microplate ELISA reader set at 492 nm. IC50 values for compound inhibition were calculated directly from graphs of optical density (arbitrary units) versus compound concentration following subtraction of blank values.

Chain of VEGFR2 (P35968 786-1356): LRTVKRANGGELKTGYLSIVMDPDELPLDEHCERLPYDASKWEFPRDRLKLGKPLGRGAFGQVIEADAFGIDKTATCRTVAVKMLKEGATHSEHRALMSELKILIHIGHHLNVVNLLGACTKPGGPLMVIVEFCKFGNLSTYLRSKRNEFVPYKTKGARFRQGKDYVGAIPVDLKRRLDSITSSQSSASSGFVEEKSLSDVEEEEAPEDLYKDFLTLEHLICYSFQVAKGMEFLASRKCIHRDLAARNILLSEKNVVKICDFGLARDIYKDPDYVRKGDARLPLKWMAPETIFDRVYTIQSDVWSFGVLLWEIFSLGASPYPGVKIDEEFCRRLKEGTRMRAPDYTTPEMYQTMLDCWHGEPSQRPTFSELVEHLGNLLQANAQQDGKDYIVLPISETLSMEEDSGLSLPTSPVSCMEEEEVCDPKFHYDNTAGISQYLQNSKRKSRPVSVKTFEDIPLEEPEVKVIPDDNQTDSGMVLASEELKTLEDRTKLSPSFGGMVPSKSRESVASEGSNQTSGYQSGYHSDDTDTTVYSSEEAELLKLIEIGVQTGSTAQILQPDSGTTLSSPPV

IC50	VEGFR2 potency as shown in this assay (in words)	Compound
> 10000 nM		Cc1ccoc1C(=O)Nc1ccc(C2CN=C3c4ccccc4NC(=O)N3C2)cc1 (stereo not drawn) [Example 16, 3-Methyl-N-[4-(6-oxo-3,4,6,7-tetrahydro-2H-pyrimido[1,2-c]quinazolin-3-yl)phenyl]-2-furamide]
360 nM	excellent VEGFR2 potency	O=C(Nc1ccc(C2CN=C3c4ccccc4NC(=O)N3C2)cc1)Nc1cc(C(F)(F)F)ccc1F (stereo not drawn) [Example 5, 1-[2-Fluoro-5-(trifluoromethyl)phenyl]-3-[4-(6-oxo-3,4,6,7-tetrahydro-2H-pyrimido[1,2-c]quinazolin-3-yl)phenyl]urea]
250 nM	excellent VEGFR2 potency	O=C(Nc1ccc(C2CN=C3c4ccccc4NC(=O)N3C2)cc1)Nc1cccc(Br)c1 (stereo not drawn) [Example 9, 1-(3-Bromophenyl)-3-[4-(6-oxo-3,4,6,7-tetrahydro-2H-pyrimido[1,2-c]quinazolin-3-yl)phenyl]urea]
> 10000 nM		Cc1cc(N)ccc1C1CN=C2c3ccccc3NC(=O)N2C1 (stereo not drawn) [Example 23, 3-(4-amino-2-methylphenyl)-2,3,4,7-tetrahydro-6H-pyrimido[1,2-c]quinazolin-6-one]
> 10000 nM		Nc1ccc(C2CN=C3c4ccccc4NC(=O)N3C2)cc1 (stereo not drawn) [Example 4, 3-(4-Aminophenyl)-2,3,4,7-tetrahydro-6H-pyrimido[1,2-c]quinazolin-6-one]
1500 nM		Cc1cccc(NC(=O)Nc2ccc(C3CN=C4c5ccccc5NC(=O)N4C3)c(C)c2)c1 (stereo not drawn) [Example 24, 1-[3-methyl-4-(6-oxo-3,4,6,7-tetrahydro-2H-pyrimido[1,2-c]quinazolin-3-yl)phenyl]-3-(3-methylphenyl)urea]
> 10000 nM		O=C1Nc2ccccc2C2=NCC(c3ccc(Cl)cc3)CN12 (stereo not drawn) [Example 1, 3-(4-Chlorophenyl)-2,3,4,7-tetrahydro-6H-pyrimido[1,2-c]quinazolin-6-one]
1470 nM		COc1cccc(NC(=O)Nc2ccc(C3CN=C4c5ccccc5NC(=O)N4C3)cc2)c1 (stereo not drawn) [Example 13, 1-(3-Methoxyphenyl)-3-[4-(6-oxo-3,4,6,7-tetrahydro-2H-pyrimido[1,2-c]quinazolin-3-yl)phenyl]urea]
> 10000 nM	lack of potency	COC(=O)c1ccc2c(c1)NC(=O)N1CC(c3ccc(N(C)C(=O)CN4CCN(C)CC4)cc3)CN=C21 (stereo not drawn) [Example 19, Methyl 3-(4-{methyl[(4-methylpiperazin-1-yl)acetyl]amino}phenyl)-6-oxo-3,4,6,7-tetrahydro-2H-pyrimido[1,2-c]quinazoline-9-carboxylate]
> 10000 nM		COc1ccc(NC(=O)Nc2ccc(C3CN=C4c5ccccc5NC(=O)N4C3)cc2)cc1 (stereo not drawn) [Example 12, 1-(4-Methoxyphenyl)-3-[4-(6-oxo-3,4,6,7-tetrahydro-2H-pyrimido[1,2-c]quinazolin-3-yl)phenyl]urea]
340 nM	excellent VEGFR2 potency	O=C(Nc1ccc(C2CN=C3c4ccccc4NC(=O)N3C2)cc1)Nc1ccc(Cl)c(C(F)(F)F)c1 (stereo not drawn) [Example 7, 1-[4-Chloro-3-(trifluoromethyl)phenyl]-3-[4-(6-oxo-3,4,6,7-tetrahydro-2H-pyrimido[1,2-c]quinazolin-3-yl)phenyl]urea]
760 nM	excellent VEGFR2 potency	O=C(Nc1cccc(C2CN=C3c4ccccc4NC(=O)N3C2)c1)Nc1cc(C(F)(F)F)ccc1F (stereo not drawn) [Example 3, 1-[2-Fluoro-5-(trifluoromethyl)phenyl]-3-[3-(6-oxo-3,4,6,7-tetrahydro-2H-pyrimido[1,2-c]quinazolin-3-yl)phenyl]urea]
> 10000 nM		Cc1cc(C2CN=C3c4ccccc4NC(=O)N3C2)ccc1N (stereo not drawn) [Example 22, 3-(4-amino-3-methylphenyl)-2,3,4,7-tetrahydro-6H-pyrimido[1,2-c]quinazolin-6-one]
> 10000 nM	lack of potency	CN1CCN(CC(=O)Nc2ccc(C3CN=C4c5ccccc5NC(=O)N4C3)cc2)CC1 (stereo not drawn) [Example 20, 2-(4-Methylpiperazin-1-yl)-N-[4-(6-oxo-3,4,6,7-tetrahydro-2H-pyrimido[1,2-c]quinazolin-3-yl)phenyl]acetamide]
	lack of potency	CC(C)NC(=O)Nc1ccc(C2CN=C3c4ccccc4NC(=O)N3C2)cc1 (stereo not drawn) [Example 14, 1-Isopropyl-3-[4-(6-oxo-3,4,6,7-tetrahydro-2H-pyrimido[1,2-c]quinazolin-3-yl)phenyl]urea]
> 10000 nM		O=C(Nc1ccc(C2CN=C3c4ccccc4NC(=O)N3C2)cc1)c1cccc(C(F)(F)F)c1 (stereo not drawn) [Example 17, N-[4-(6-oxo-3,4,6,7-tetrahydro-2H-pyrimido[1,2-c]quinazolin-3-yl)phenyl]-3-(trifluoromethyl)benzamide]
> 10000 nM		CNc1ccc(C2CN=C3c4ccc(C(=O)OC)cc4NC(=O)N3C2)cc1 (stereo not drawn) [Example 18, Methyl 3-[4-(methylamino)phenyl]-6-oxo-3,4,6,7-tetrahydro-2H-pyrimido[1,2-c]quinazoline-9-carboxylate]
330 nM	excellent VEGFR2 potency	Cc1cccc(NC(=O)Nc2ccc(C3CN=C4c5ccccc5NC(=O)N4C3)cc2)c1 (stereo not drawn) [Example 10, 1-(3-Methylphenyl)-3-[4-(6-oxo-3,4,6,7-tetrahydro-2H-pyrimido[1,2-c]quinazolin-3-yl)phenyl]urea]
> 10000 nM		COC(=O)c1ccc2c(c1)NC(=O)N1CC(c3ccc(N(C)C(=O)Nc4cc(C(F)(F)F)ccc4F)cc3)CN=C21 (stereo not drawn) [Example 21, Methyl 3-{4-[({[2-fluoro-5-(trifluoromethyl)phenyl]amino}carbonyl)(methyl)amino]phenyl}-6-oxo-3,4,6,7-tetrahydro-2H-pyrimido[1,2-c]quinazoline-9-carboxylate]
> 10000 nM		Nc1cccc(C2CN=C3c4ccccc4NC(=O)N3C2)c1 (stereo not drawn) [Example 2, 3-(3-Aminophenyl)-2,3,4,7-tetrahydro-6H-pyrimido[1,2-c]quinazolin-6-one]
4030 nM		Cc1ccc(NC(=O)Nc2ccc(C3CN=C4c5ccccc5NC(=O)N4C3)cc2)cc1 (stereo not drawn) [Example 11, 1-(4-Methylphenyl)-3-[4-(6-oxo-3,4,6,7-tetrahydro-2H-pyrimido[1,2-c]quinazolin-3-yl)phenyl]urea]
4750 nM		O=C(Nc1ccccc1)Nc1ccc(C2CN=C3c4ccccc4NC(=O)N3C2)cc1 (stereo not drawn) [Example 6, 1-[4-(6-Oxo-3,4,6,7-tetrahydro-2H-pyrimido[1,2-c]quinazolin-3-yl)phenyl]-3-phenylurea]
1800 nM		CSc1cccc(NC(=O)Nc2ccc(C3CN=C4c5ccccc5NC(=O)N4C3)cc2)c1 (stereo not drawn) [Example 8, 1-[3-(Methylthio)phenyl]-3-[4-(6-oxo-3,4,6,7-tetrahydro-2H-pyrimido[1,2-c]quinazolin-3-yl)phenyl]urea]
6380 nM	excellent VEGFR2 potency	Cc1ccoc1C(=O)Nc1cccc(C2CN=C3c4ccccc4NC(=O)N3C2)c1 (stereo not drawn) [Example 15, 3-Methyl-N-[3-(6-oxo-3,4,6,7-tetrahydro-2H-pyrimido[1,2-c]quinazolin-3-yl)phenyl]-2-furamide]
390 nM		Cc1cc(NC(=O)Nc2cc(C(F)(F)F)ccc2F)ccc1C1CN=C2c3ccccc3NC(=O)N2C1 (stereo not drawn) [Example 25, 1-[2-fluoro-5-(trifluoromethyl)phenyl]-3-[3-methyl-4-(6-oxo-3,4,6,7-tetrahydro-2H-pyrimido[1,2-c]quinazolin-3-yl)phenyl]urea]
